Reference: patent US9609884B2, “Anti-fatigue agent” (Suntory Holdings Limited, priority 2007, dated 2017)

Columns and labels:
Assay type in all cases: in vivo
[1] = system: Sprague Dawley male rats under exercise stress; experiment: Forced exercise test, sesamin given after treadmill exercise stress (recovery from fatigue); details: 180 mg/kg oral in olive oil after 3-hr treadmill exercise stress; versus control group under exercise stress
Procedure: The second thing to do is measure the motor activity in a forced exercise test. Rats administered with the test substance are forced to have exercise on a treadmill and, thereafter, the motor activity of the animal in the dark period is measured. Since this is an animal model for fatigue from exercise (physical fatigue), an increase in the motor activity as achieved by administering it with the test substance means the verification of resistance to fatigue.
The test sample used in Example 2 was the same sesamin as in Example 1.
Sprague Dawley male rats (6-week old) were acclimatized in a test environment for a week and the animals that had shown normal growth were subjected to the test. One day before the start of the test, the rats were divided into five groups each consisting of eight animals. On the day of the test, all animals were starved from the morning and one group of rats was assigned as a resting group that was not to be subjected to exercise stress. […] Thereafter, the animals were transferred to an automatograph (Supermex manufactured by MUROMACHI KIKAI CO., LTD.) and their motor activity in the dark period was measured.

[2] = system: Balb/c male mice kept under water immersion stress; experiment: Measuring fatigue-causing substances (ketone bodies) in the blood of mice under water immersion stress; details: 50 mg/kg oral once a day for three days during water immersion; versus control group under water immersion stress (olive oil)
From the text: The third thing to do is measure the amount of fatigue-causing substances in the blood. This involves administering the test substance to check to see if it has an action for controlling an increase in the blood concentration of fatigue-causing substances under a physical or mental stress. Although no substances have been identified to be causative of fatigue, one class of candidates may be ketone bodies (collectively referring to acetoacetate, 3-hydroxybutyrate, and acetone). Ketone bodies are known to be metabolites that are produced when free fatty acids […] from the fat tissue on account of lowered glucose availability undergo β-oxidation. If the production of ketone bodies is enhanced beyond their utilization in the extrahepatic tissues, ketone bodies accumulate in the blood, leading to ketosis. Actoacetate and 3-hydroxybutyrate are moderately strong acids, so if ketone bodies accumulate in amounts exceeding the buffering action of the living body, the blood becomes acidic, causing a condition known as acidosis which, in turn, produces a feeling of weariness (Takanori Yamamoto, Igaku no ayumi (Progress in Medicine), Vol. 204, No. 5:325-329, 2003). […]
After three days, blood was drawn from each mouse and the ketone bodies in the serum were measured by the enzyme method with a biochemical automatic analyzer (Model 7070 of Hitachi, Ltd.)

[3] = system: Balb/c male mice kept under water immersion stress; experiment: Water immersion sleep disturbed test (forced swimming under weight load); details: once a day for two days during water immersion, weight 8% of body weight
Procedure: The first thing to do is measure the swimming time in a water immersion sleep disturbed test. Mice that have been kept in an environment such as water immersion where they are unable to have a good sleep or take a rest position so they cannot have a physical or mental rest are forced to swim under a weight load and the time it takes for them to have their nose sunk in the water for a period of ten seconds or longer is measured to confirm the degree of their fatigue. Since this is an animal model for physical or mental fatigue, an extension of the swimming time as achieved by administering it with the test substance means the verification of resistance to fatigue, as exemplified by relief of physical and/or mental fatigue, maintenance of physical vigor in the tired model (increase in body strength), or improvement of stamina. A sesamin/episesamin mixture (sesamin:episesamin=1:1 in weight ratio) was used as a test sample. Effectiveness against fatigue was evaluated by the following partial modification of the method of Tanaka et al. (Neuroscience, Let. 352, 159-162, 2003). The test animals Balb/c male mice (8-week old) were divided into five groups, each consisting of 12 animals and having the same average body weight. Four of those five groups were water immersion groups, which were kept in breeding cages, not on paper chips but in tap water (23° C.) supplied to a depth of 7 mm, thereby disturbing sleep of the mice. […] After two days, each mouse was fitted with a weight at the tail which corresponded to 8% of its body weight, and was allowed to swim in a water tank of 18 cm^φ that was filled with water to a depth of 30 cm; the time it took for each mouse to have its nose sunk in water for a period of at least 10 seconds was measured. The mice in the groups kept under water immersion stress could swim for a shorter period than the mice in the normally kept group and the degree by which the shortening of the swimming time could be controlled in the sesamin administered groups was measured to evaluate the effectiveness of sesamin against fatigue. […]

[4] = system: Sprague Dawley male rats under exercise stress; experiment: Forced exercise test, sesamin-mixed feed for a week before treadmill exercise stress (prevention of fatigue); details: versus exercise fatigue control group
Procedure: The second thing to do is measure the motor activity in a forced exercise test. Rats administered with the test substance are forced to have exercise on a treadmill and, thereafter, the motor activity of the animal in the dark period is measured. Since this is an animal model for fatigue from exercise (physical fatigue), an increase in the motor activity as achieved by administering it with the test substance means the verification of resistance to fatigue. The test sample used in Example 3 was the same sesamin as in Example 1. Sprague Dawley male rats (10-week old) were acclimatized in a test environment for a week and the animals that had shown normal growth were subjected to the test. The rats were divided into three groups each consisting of eight animals. Then, AI[…] was mixed with sesamin to give final concentrations of 0, 0.02, and 0.1% (w/w) to prepare feeds and the rats were let to ingest the respective feeds ad libitum for a week. Thereafter, all animals were given a 3-hr exercise stress by means of a treadmill-type forced walking apparatus (MK-680 manufactured by MUROMACHI KIKAI CO., LTD.) After the end of exercise stress application, the animals were transferred to an automatograph (Supermex manufactured by MUROMACHI KIKAI CO., LTD.) and their motor activity in the dark period was measured.

With c1cc2c(cc1[C@H]1OC[C@H]3[C@@H]1CO[C@@H]3c1ccc3c(c1)OCO3)OCO2 [sesamin] the “motor activity in the dark period” value [1] was “an increase in the motor activity was confirmed”, the “concentration of ketone bodies in the serum” value [2] was “significant control of the increase in the concentration of ketone bodies” and the “swimming time (control group kept under water immersion stress taken as 100%)” value ([3]; 12.5 mg/kg oral) was 150%. The “swimming time (control group kept under water immersion stress taken as 100%)” value ([3]; 50 mg/kg oral) was 300%, the “swimming time (control group kept under water immersion stress taken as 100%)” value ([3]; 200 mg/kg oral) was 133% and the “motor (physical) activity in the dark period” value ([4]; mixed feed containing 0.02% (w/w) sesamin ad libitum for a week before 3-hr exercise stress) was “almost the same physical activity”. For the same compound, the “motor (physical) activity in the dark period” value ([4]; mixed feed containing 0.1% (w/w) sesamin (about 80 mg/kg) ad libitum for a week before 3-hr exercise stress) was “enhanced physical activity”.
